Measured values published in US11466010B2, “Toll-like receptor 8 (TLR8) specific antagonists and methods of making and uses thereof” (The Regents of the University of Colorado, a body corporate, priority 2017, dated 2022).

Experiments:
TLR7 = target: T1, TLR7 (Homo sapiens, UniProt Q9NYK1); assay: SEAP assay in HEK-Blue TLR7 cells activated by R848; format: cell-based; conditions: below approx. micromolar concentration
T1 construct: host or cells: HEK-Blue TLR7 cells
T1 sequence (Q9NYK1 27-1049): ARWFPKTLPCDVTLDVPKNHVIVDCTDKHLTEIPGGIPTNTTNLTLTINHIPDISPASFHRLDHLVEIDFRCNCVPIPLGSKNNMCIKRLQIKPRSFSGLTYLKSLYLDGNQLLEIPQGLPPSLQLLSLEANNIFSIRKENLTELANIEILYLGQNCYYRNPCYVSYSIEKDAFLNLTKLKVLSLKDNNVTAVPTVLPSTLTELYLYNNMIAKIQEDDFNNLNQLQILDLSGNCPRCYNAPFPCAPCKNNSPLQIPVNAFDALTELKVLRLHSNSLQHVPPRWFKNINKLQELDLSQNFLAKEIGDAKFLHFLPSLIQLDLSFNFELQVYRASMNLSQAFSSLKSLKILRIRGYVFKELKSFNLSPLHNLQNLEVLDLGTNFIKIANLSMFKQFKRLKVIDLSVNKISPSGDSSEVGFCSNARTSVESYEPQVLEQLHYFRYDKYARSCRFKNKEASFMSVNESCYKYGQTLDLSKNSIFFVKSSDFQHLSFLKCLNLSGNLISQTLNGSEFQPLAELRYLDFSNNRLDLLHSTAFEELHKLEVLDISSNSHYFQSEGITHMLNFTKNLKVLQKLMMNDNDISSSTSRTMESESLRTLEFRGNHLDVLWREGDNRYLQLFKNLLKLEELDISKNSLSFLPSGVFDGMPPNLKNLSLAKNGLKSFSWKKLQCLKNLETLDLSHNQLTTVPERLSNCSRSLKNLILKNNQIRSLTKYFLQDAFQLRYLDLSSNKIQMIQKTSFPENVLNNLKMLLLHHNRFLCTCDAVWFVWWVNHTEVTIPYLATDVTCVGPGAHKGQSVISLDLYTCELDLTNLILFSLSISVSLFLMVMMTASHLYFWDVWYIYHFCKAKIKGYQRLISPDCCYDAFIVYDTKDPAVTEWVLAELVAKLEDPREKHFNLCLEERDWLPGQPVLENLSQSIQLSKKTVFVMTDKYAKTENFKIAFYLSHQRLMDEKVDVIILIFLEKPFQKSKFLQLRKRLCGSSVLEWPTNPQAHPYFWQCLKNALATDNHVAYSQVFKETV
Procedure: TLR selectivity assay: The selectivity of sample compound was tested using SEAP reporter assay in HEK-Blue overexpressing various TLRs. Plates were set up in same manner as described in SEAP assay above.

mouse TLR9 = target: T2, mouse TLR9 (Mus musculus, UniProt Q9EQU3); assay: IL-12p40 production in splenocytes from hTLR8tg/TLR7-KO mice, TLR9 agonist 1018; format: cell-based; conditions: 1018 7.1 ug/mL, 48 hours
T2 construct: endogenous in cells; host or cells: primary splenocytes from hTLR8tg/TLR7-KO mice
T2 sequence (Q9EQU3 26-1032): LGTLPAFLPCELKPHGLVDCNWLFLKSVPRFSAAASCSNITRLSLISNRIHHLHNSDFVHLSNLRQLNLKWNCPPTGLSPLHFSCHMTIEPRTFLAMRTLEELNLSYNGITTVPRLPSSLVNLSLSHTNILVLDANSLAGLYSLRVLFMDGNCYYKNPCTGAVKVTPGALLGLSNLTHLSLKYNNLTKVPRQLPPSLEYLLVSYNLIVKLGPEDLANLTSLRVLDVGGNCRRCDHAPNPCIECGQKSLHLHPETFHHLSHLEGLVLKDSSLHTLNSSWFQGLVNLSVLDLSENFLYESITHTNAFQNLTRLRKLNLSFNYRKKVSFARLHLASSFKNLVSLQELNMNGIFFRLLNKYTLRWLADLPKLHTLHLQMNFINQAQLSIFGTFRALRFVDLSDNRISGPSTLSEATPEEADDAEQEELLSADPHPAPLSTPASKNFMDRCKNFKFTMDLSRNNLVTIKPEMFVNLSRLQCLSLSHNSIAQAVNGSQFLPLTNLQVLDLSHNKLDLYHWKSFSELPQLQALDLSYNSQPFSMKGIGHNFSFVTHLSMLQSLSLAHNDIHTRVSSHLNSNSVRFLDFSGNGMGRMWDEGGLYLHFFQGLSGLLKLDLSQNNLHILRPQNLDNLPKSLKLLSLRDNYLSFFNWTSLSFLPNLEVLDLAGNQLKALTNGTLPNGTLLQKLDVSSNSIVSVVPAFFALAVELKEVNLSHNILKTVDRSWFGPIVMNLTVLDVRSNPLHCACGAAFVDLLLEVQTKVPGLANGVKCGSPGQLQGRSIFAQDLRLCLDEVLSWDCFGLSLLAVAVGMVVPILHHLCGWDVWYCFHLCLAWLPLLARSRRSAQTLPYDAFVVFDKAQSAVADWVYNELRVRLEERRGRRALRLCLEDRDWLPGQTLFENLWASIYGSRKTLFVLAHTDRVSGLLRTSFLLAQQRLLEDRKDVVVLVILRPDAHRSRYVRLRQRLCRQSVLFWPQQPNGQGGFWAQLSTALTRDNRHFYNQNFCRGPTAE
Procedure: Activity on primary mouse splenocytes: To assess TLR8 and TLR9 activity, spleens were isolated from TLR7 knock-out mice harboring a human TLR8 transgene (hTLR8tg/TLR7-KO). Splenocytes were prepared by dissociation through a cell strainer and removal of red blood cells with lysis buffer. Splenocytes were incubated with a dilution series of compounds and a constant amount of a TLR8 agonist (RNA oligonucleotide ORN8L) or a TLR9 agonist (CpG-containing phosphorothioate DNA oligonucleotide 1018). After 48 hours, culture supernatants were collected and analyzed for IL-12p40 production. Curves represent activity from a single spleen.

SMILES	effect on TLR7 (TLR7)	activity against mouse TLR9 (mouse TLR9)
COc1ccc2c(-c3ccc(O)c(C)c3)ccnc2c1 [Compound 11a, 2-Methyl-4-(7-methoxyl-4-quinolinyl)-phenol]	not affected	no activity
Cc1cc(-c2ccnc3cc(O)ccc23)ccc1O [Compound 11b, 2-Methyl-4-(7-hydroxyl-4-quinolinyl)-phenol]	not affected	no activity
